Species: Rattus norvegicus
Assay: DrugMatrix - Regimen: Daily Repeat
Assay type: toxicity, organism-based, Sprague-Dawley
Parameters: regimen Daily Repeat, gender Male, age 6-8 weeks
Details: in vivo, po, 47 mg/kg, route oral GAVAGE, dose level Low, […]; for ABSOLUTE BASOPHIL / ABSOLUTE EOSINOPHIL / ABSOLUTE LYMPHOCYTE / ABSOLUTE MONOCYTE / ABSOLUTE SEGMENTED NEUTROPHIL / BASOPHIL / EOSINOPHIL / ERYTHROCYTE COUNT / HEMATOCRIT / HEMOGLOBIN / LEUKOCYTE COUNT / LYMPHOCYTE / MEAN CORPUSCULAR HEMOGLOBIN / MEAN CORPUSCULAR HEMOGLOBIN CONCENTRATION / MEAN CORPUSCULAR VOLUME / MONOCYTE / NEUTROPHIL / NUCLEATED RED BLOOD CELLS / PLATELET COUNT: tissue Blood; for ALANINE AMINOTRANSFERASE / ALBUMIN / ALKALINE PHOSPHATASE / ASPARTATE AMINOTRANSFERASE / BLOOD UREA NITROGEN / CARBON DIOXIDE / CHLORIDE / CHOLESTEROL / CREATINE PHOSPHOKINASE / CREATININE / GLUCOSE / LACTATE DEHYDROGENASE / LIPASE / PHOSPHORUS / POTASSIUM / SODIUM / TOTAL BILIRUBIN / TOTAL PROTEIN / URIC ACID: tissue Plasma

Structure (SMILES): Cc1cn([C@H]2C[C@H](N=[N+]=[N-])[C@@H](CO)O2)c(=O)[nH]c1=O [ZIDOVUDINE]
- ABSOLUTE BASOPHIL (72 h, time 3 day): 0 CELLS/uL
- ABSOLUTE EOSINOPHIL (72 h, time 3 day): 0 CELLS/uL
- ABSOLUTE LYMPHOCYTE (72 h, time 3 day): 11829.67 CELLS/uL
- ABSOLUTE MONOCYTE (72 h, time 3 day): 82 CELLS/uL
- ABSOLUTE SEGMENTED NEUTROPHIL (72 h, time 3 day): 955 CELLS/uL
- BASOPHIL (72 h, time 3 day): 0%
- EOSINOPHIL (72 h, time 3 day): 0%
- ERYTHROCYTE COUNT (72 h, time 3 day): 5.26 x10E6/uL
- HEMATOCRIT (72 h, time 3 day): 33.23%
- HEMOGLOBIN (72 h, time 3 day): 13.43 G/DL
- LEUKOCYTE COUNT (72 h, time 3 day): 12.87 x10E3/uL
- LYMPHOCYTE (72 h, time 3 day): 92%
- MEAN CORPUSCULAR HEMOGLOBIN (72 h, time 3 day): 25.67 pg
- MEAN CORPUSCULAR HEMOGLOBIN CONCENTRATION (72 h, time 3 day): 40.47 G/DL
- MEAN CORPUSCULAR VOLUME (72 h, time 3 day): 63.37 fL
- MONOCYTE (72 h, time 3 day): 0.67%
- NEUTROPHIL (72 h, time 3 day): 7.33%
- NUCLEATED RED BLOOD CELLS (72 h, time 3 day): 0 /100WBC
- PLATELET COUNT (72 h, time 3 day): 1228 x10E3/uL
- ALANINE AMINOTRANSFERASE (72 h, time 3 day): 73.67 u/L
- ALBUMIN (72 h, time 3 day): 4.1 G/DL
- ALKALINE PHOSPHATASE (72 h, time 3 day): 470 u/L
- ASPARTATE AMINOTRANSFERASE (72 h, time 3 day): 86 u/L
- BLOOD UREA NITROGEN (72 h, time 3 day): 12 mg/dL
- CARBON DIOXIDE (72 h, time 3 day): 32.67 mmol/L
- CHLORIDE (72 h, time 3 day): 102.33 MEQ/L
- CHOLESTEROL (72 h, time 3 day): 68 mg/dL
- CREATINE PHOSPHOKINASE (72 h, time 3 day): 377 u/L
- CREATININE (72 h, time 3 day): 0.14 mg/dL
- GLUCOSE (72 h, time 3 day): 156.33 mg/dL
- LACTATE DEHYDROGENASE (72 h, time 3 day): 235.67 u/L
- LIPASE (72 h, time 3 day): 11.67 u/L
- PHOSPHORUS (72 h, time 3 day): 10.87 mg/dL
- POTASSIUM (72 h, time 3 day): 6.46 MEQ/L
- SODIUM (72 h, time 3 day): 141.6 MEQ/L
- TOTAL BILIRUBIN (72 h, time 3 day): 0.17 mg/dL
- TOTAL PROTEIN (72 h, time 3 day): 5.57 G/DL
- URIC ACID (72 h, time 3 day): 1.57 mg/dL
- ABSOLUTE BASOPHIL (120 h, time 5 day): 0 CELLS/uL
- ABSOLUTE EOSINOPHIL (120 h, time 5 day): 0 CELLS/uL
- ABSOLUTE LYMPHOCYTE (120 h, time 5 day): 15346 CELLS/uL
- ABSOLUTE MONOCYTE (120 h, time 5 day): 401.67 CELLS/uL
- ABSOLUTE SEGMENTED NEUTROPHIL (120 h, time 5 day): 2019 CELLS/uL
- BASOPHIL (120 h, time 5 day): 0%
- EOSINOPHIL (120 h, time 5 day): 0%
- ERYTHROCYTE COUNT (120 h, time 5 day): 5.55 x10E6/uL
- HEMATOCRIT (120 h, time 5 day): 35.13%
- HEMOGLOBIN (120 h, time 5 day): 14.03 G/DL
- LEUKOCYTE COUNT (120 h, time 5 day): 17.77 x10E3/uL
- LYMPHOCYTE (120 h, time 5 day): 86%
- MEAN CORPUSCULAR HEMOGLOBIN (120 h, time 5 day): 25.3 pg
- MEAN CORPUSCULAR HEMOGLOBIN CONCENTRATION (120 h, time 5 day): 39.97 G/DL
- MEAN CORPUSCULAR VOLUME (120 h, time 5 day): 63.37 fL
- MONOCYTE (120 h, time 5 day): 2.33%
- NEUTROPHIL (120 h, time 5 day): 11.67%
- NUCLEATED RED BLOOD CELLS (120 h, time 5 day): 0 /100WBC
- PLATELET COUNT (120 h, time 5 day): 1138.33 x10E3/uL
- ALANINE AMINOTRANSFERASE (120 h, time 5 day): 62 u/L
- ALBUMIN (120 h, time 5 day): 4.3 G/DL
- ALKALINE PHOSPHATASE (120 h, time 5 day): 450.33 u/L
- ASPARTATE AMINOTRANSFERASE (120 h, time 5 day): 81.67 u/L
- BLOOD UREA NITROGEN (120 h, time 5 day): 12.33 mg/dL
- CARBON DIOXIDE (120 h, time 5 day): 30.67 mmol/L
- CHLORIDE (120 h, time 5 day): 101 MEQ/L
- CHOLESTEROL (120 h, time 5 day): 72.67 mg/dL
- CREATINE PHOSPHOKINASE (120 h, time 5 day): 317 u/L
- CREATININE (120 h, time 5 day): 0.25 mg/dL
- GLUCOSE (120 h, time 5 day): 162.33 mg/dL
- LACTATE DEHYDROGENASE (120 h, time 5 day): 138 u/L
- LIPASE (120 h, time 5 day): 11 u/L
- PHOSPHORUS (120 h, time 5 day): 11.9 mg/dL
- POTASSIUM (120 h, time 5 day): 6.72 MEQ/L
- SODIUM (120 h, time 5 day): 143.47 MEQ/L
- TOTAL BILIRUBIN (120 h, time 5 day): 0.2 mg/dL
- TOTAL PROTEIN (120 h, time 5 day): 5.87 G/DL
- URIC ACID (120 h, time 5 day): 1.9 mg/dL

— ChEMBL document CHEMBL3885881, “DrugMatrix”
